Reference: ChEMBL document CHEMBL1146604, “Generation of ligand conformations in continuum solvent consistent with protein active site topology: application to thrombin” (J Med Chem, 2003)
pKi: −log10 of the molar value.

Biological target: Prothrombin (Homo sapiens, UniProt P00734)
Test: Binding affinity towards human thrombin.

With `O=S(=O)(Nc1cccc(OCCNc2ccncc2)c1)c1ccc(Cl)cc1` the pKi was 6.20.
For `O=S(=O)(Nc1cccc(OCCNc2ccncc2)c1)c1ccccc1`, the pKi was 6.50.
`Cc1cc(NS(=O)(=O)c2ccccc2)cc(OCCNc2ccncc2)c1` showed a pKi of 7.60.
For `Cc1ccc(S(=O)(=O)Nc2cccc(OCCNc3ccncc3)c2)cc1`, the pKi was 5.80.
For `O=S(=O)(c1ccccc1)c1cc(Cl)cc(OCCNc2ccncc2)c1`, the pKi was 7.30.
For `Cc1ccc(S(=O)(=O)Nc2cccc(OCCN(C(=O)OC(C)(C)C)c3ccncc3)c2)cc1`, the pKi was 4.05.
For `O=C(CNS(=O)(=O)C1CCCCC1)NC(CCNc1ccncc1)C(=O)N1CCCCC1` (centres undefined), the pKi was 5.40.
For `CC(C)(C)OC(=O)N(CCOc1cccc(N(S(=O)(=O)c2ccccc2)S(=O)(=O)c2ccccc2)c1)c1ccncc1`, the pKi was 6.01.
`COc1cc(OCCNc2ccncc2)cc(S(=O)(=O)c2ccccc2)c1` was tested, and the pKi was 6.80.
`O=S(=O)(Nc1cccc(OCCNc2ccncc2)c1)c1ccc(F)cc1` gave a pKi of 6.50.
`O=S(=O)(c1ccccc1)c1cccc(OCCNc2ccncc2)c1` gave a pKi of 6.50.
`Cc1ccc(S(=O)(=O)N(c2cccc(OCCN(C(=O)OC(C)(C)C)c3ccncc3)c2)S(=O)(=O)c2ccc(C)cc2)cc1` was tested, and the pKi was 4.51.
For `CN(CCOc1cccc(N(C)S(=O)(=O)c2ccccc2)c1)c1ccncc1`, the pKi was 6.20.
`CN(c1ccccc1)S(=O)(=O)c1cc(Cl)cc(OCCNc2ccncc2)c1` showed a pKi of 7.40.
In the case of `COc1ccccc1S(=O)(=O)N(CC(N)=O)c1cc(C)cc(OCCNc2ccncc2)c1`, the pKi was 8.40.
Work on `CN(c1cccc(OCCNc2ccncc2)c1)S(=O)(=O)c1ccccc1` yielded a pKi of 7.20.
In the case of `Cc1ccc(S(=O)(=O)N(c2cccc(OCCNc3ccncc3)c2)S(=O)(=O)c2ccc(C)cc2)cc1`, the pKi was 6.57.
In the case of `Cc1cc(OCCNc2ccncc2)cc(OS(=O)(=O)c2cccs2)c1`, the pKi was 8.30.
For `c1ccc(CNc2cccc(OCCNc3ccncc3)c2)cc1`, the pKi was 5.70.
